Results published in ChEMBL document CHEMBL1821675, “The selective P-TEFb inhibitor CAN508 targets angiogenesis” (Eur J Med Chem, 2011).
The source made the active and inactive calls. The rule behind the calls is not given here.

What was measured:
[1] = system: UO-31; assay: Cytotoxicity against human UO31 cells; assay type: functional
[2] = system: MOLT-4; assay: Cytotoxicity against human MOLT4 cells; assay type: functional
[3] = biological target: Ribosomal protein S6 kinase alpha-3 (Homo sapiens) (UniProt P51812); assay: Inhibition of RSK2 assessed as residual activity at 10 uM by radioactivity assay in presence of 50 uM ATP
[4] = system: BT-549; assay: Cytotoxicity against human BT549 cells; assay type: functional
[5] = biological target: Homeodomain-interacting protein kinase 1 (Homo sapiens) (UniProt Q86Z02); assay: Inhibition of HIPK1 assessed as residual activity at 10 uM by radioactivity assay in presence of 20 uM ATP
[6] = biological target: Inhibitor of nuclear factor kappa-B kinase subunit epsilon (Homo sapiens) (UniProt Q14164); assay: Inhibition of IKK-epsilon assessed as residual activity at 10 uM by radioactivity assay in presence of 50 uM ATP
[7] = biological target: Mitogen-activated protein kinase 1 (Homo sapiens) (UniProt P28482); assay: Inhibition of ERK2 assessed as residual activity at 10 uM by radioactivity assay in presence of 20 uM ATP
Chain of Mitogen-activated protein kinase 1 (Homo sapiens) (P28482 whole entry): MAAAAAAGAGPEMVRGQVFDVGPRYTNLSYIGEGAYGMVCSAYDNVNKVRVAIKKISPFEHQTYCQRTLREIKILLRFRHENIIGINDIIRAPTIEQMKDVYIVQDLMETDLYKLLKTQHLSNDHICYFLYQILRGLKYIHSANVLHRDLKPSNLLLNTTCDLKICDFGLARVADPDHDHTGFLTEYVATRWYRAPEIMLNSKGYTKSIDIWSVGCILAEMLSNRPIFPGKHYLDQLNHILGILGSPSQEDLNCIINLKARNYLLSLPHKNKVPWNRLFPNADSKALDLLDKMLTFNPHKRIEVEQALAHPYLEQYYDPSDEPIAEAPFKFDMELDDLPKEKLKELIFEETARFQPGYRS

[8] = biological target: Ephrin type-A receptor 4 (Homo sapiens) (UniProt P54764); assay: Inhibition of EPHA4 assessed as residual activity at 10 uM by radioactivity assay in presence of 50 uM ATP
[9] = biological target: Insulin receptor-related protein (Homo sapiens) (UniProt P14616); assay: Inhibition of IRR assessed as residual activity at 10 uM by radioactivity assay in presence of 5 uM ATP
[10] = biological target: High affinity nerve growth factor receptor (Homo sapiens) (UniProt P04629); assay: Inhibition of TrkA assessed as residual activity at 10 uM by radioactivity assay in presence of 20 uM ATP
Chain of High affinity nerve growth factor receptor (Homo sapiens) (P04629 33-796 limits assumed): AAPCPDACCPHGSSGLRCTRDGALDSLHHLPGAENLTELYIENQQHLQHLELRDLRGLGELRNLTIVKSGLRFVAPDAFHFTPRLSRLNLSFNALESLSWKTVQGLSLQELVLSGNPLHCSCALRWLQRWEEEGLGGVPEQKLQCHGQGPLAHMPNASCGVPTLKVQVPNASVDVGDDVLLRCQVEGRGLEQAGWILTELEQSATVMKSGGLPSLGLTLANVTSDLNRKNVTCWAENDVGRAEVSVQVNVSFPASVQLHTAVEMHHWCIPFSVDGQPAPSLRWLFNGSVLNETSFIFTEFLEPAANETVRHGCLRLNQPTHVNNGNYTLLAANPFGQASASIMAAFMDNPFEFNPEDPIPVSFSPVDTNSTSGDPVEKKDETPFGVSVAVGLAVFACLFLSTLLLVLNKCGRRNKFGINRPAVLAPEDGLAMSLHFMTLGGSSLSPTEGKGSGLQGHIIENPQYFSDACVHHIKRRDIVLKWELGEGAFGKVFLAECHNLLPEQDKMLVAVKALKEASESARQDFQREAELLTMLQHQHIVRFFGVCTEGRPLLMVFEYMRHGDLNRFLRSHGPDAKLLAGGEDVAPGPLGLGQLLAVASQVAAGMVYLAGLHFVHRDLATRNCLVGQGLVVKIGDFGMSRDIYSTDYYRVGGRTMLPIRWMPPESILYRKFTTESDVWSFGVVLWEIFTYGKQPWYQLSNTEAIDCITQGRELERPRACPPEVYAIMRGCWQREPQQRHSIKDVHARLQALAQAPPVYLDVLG

[11] = biological target: Ephrin type-B receptor 4 (Homo sapiens) (UniProt P54760); assay: Inhibition of EPH-B4 assessed as residual activity at 10 uM by radioactivity assay in presence of 50 uM ATP
[12] = biological target: Mitogen-activated protein kinase 9 (Homo sapiens) (UniProt P45984); assay: Inhibition of JNK2alpha2 assessed as residual activity at 10 uM by radioactivity assay in presence of 20 uM ATP
Chain of Mitogen-activated protein kinase 9 (Homo sapiens) (P45984 whole entry, looked up): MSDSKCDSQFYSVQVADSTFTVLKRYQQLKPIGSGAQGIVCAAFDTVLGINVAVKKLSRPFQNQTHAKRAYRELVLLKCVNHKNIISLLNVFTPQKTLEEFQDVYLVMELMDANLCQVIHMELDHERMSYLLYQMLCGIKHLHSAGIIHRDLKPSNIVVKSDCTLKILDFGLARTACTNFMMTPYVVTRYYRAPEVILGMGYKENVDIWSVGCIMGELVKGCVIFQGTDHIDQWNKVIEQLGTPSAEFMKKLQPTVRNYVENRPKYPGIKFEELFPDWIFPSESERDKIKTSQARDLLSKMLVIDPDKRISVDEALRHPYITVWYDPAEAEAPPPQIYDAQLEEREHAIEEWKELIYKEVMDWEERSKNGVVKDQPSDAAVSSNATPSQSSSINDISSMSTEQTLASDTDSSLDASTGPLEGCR

[13] = biological target: Interleukin-1 receptor-associated kinase 4 (Homo sapiens) (UniProt Q9NWZ3); assay: Inhibition of IRAK4 assessed as residual activity at 10 uM by radioactivity assay in presence of 20 uM ATP
Chain of Interleukin-1 receptor-associated kinase 4 (Homo sapiens) (Q9NWZ3 whole entry): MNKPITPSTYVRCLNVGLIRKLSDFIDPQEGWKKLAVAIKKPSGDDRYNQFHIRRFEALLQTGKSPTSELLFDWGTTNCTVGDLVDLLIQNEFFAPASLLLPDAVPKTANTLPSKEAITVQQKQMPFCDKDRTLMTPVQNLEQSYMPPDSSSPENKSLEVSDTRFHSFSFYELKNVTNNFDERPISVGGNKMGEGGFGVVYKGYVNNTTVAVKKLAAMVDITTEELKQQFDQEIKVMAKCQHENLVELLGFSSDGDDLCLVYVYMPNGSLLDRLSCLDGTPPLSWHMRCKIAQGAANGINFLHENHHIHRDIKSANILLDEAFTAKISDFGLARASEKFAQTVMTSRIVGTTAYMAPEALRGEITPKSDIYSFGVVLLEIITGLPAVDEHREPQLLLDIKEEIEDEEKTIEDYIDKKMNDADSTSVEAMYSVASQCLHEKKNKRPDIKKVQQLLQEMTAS

[14] = system: IGROV-1; assay: Cytotoxicity against human IGROV1 cells; assay type: functional
[15] = biological target: Mitogen-activated protein kinase kinase kinase 7 (Homo sapiens) (UniProt O43318); assay: Inhibition of TAK1 assessed as residual activity at 10 uM by radioactivity assay in presence of 5 uM ATP
[16] = biological target: Ephrin type-A receptor 2 (Homo sapiens) (UniProt P29317); assay: Inhibition of EPHA2 assessed as residual activity at 10 uM by radioactivity assay in presence of 50 uM ATP
Chain of Ephrin type-A receptor 2 (Homo sapiens) (P29317 whole entry): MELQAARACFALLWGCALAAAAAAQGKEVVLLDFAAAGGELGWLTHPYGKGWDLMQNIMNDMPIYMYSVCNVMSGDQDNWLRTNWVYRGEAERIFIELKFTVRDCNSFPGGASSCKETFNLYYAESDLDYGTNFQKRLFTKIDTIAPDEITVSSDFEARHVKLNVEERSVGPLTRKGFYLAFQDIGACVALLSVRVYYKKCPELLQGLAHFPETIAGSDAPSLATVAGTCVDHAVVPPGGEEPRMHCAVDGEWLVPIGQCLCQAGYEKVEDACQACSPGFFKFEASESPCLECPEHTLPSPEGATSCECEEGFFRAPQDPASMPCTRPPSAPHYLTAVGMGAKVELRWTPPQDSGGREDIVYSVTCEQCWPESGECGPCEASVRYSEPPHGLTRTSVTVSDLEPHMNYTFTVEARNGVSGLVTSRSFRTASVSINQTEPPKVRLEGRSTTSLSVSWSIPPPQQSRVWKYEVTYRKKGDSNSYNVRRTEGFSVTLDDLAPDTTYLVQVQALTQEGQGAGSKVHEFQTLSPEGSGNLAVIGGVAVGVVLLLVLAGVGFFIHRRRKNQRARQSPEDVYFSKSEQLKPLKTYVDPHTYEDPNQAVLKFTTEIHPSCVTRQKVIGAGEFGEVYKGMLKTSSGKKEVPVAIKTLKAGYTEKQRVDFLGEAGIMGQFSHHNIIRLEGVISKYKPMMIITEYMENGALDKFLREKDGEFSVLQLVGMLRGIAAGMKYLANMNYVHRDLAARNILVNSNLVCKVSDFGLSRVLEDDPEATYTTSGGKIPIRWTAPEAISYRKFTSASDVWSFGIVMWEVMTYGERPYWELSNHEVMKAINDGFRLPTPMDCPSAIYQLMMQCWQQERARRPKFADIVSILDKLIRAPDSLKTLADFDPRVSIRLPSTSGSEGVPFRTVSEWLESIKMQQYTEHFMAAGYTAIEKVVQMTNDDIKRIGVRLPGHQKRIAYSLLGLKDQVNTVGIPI

[17] = system: UACC-257; assay: Cytotoxicity against human UACC257 cells; assay type: functional
[18] = biological target: Cyclin-dependent kinase 9 (Homo sapiens) (UniProt P50750); assay: Inhibition of CDK9-catalyzed RNA polymerase 2 phosphorylation at Ser2 in human MCF7 cells after 2 hrs by immunoblotting; assay type: cell-based
Chain of Cyclin-dependent kinase 9 (Homo sapiens) (P50750 whole entry): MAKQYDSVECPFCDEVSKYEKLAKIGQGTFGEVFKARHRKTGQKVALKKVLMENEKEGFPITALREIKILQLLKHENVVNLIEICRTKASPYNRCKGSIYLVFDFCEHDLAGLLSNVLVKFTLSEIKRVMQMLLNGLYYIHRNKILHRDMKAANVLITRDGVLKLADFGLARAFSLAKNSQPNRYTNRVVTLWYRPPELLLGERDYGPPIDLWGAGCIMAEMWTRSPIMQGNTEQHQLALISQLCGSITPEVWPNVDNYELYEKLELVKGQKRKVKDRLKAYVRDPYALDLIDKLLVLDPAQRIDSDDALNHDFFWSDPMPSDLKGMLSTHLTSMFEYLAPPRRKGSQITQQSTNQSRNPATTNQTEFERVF

[19] = biological target: Mitogen-activated protein kinase 10 (Homo sapiens) (UniProt P53779); assay: Inhibition of JNK3alpha1 assessed as residual activity at 10 uM by radioactivity assay in presence of 20 uM ATP
[20] = system: MCF7; assay: Inhibition of RNA synthesis in human MCF7 cells assessed as decrease in [3H] Uridine incorporation after 2 hrs by scintillation counting; assay type: functional, cell-based
[21] = biological target: MAP kinase-activated protein kinase 5 (Homo sapiens) (UniProt Q8IW41); assay: Inhibition of PRAK assessed as residual activity at 10 uM by radioactivity assay in presence of 20 uM ATP
[22] = biological target: Phosphorylase b kinase gamma catalytic chain, skeletal muscle/heart isoform (Homo sapiens) (UniProt Q16816); assay: Inhibition of PHKG1 assessed as residual activity at 10 uM by radioactivity assay in presence of 50 uM ATP
Chain of Phosphorylase b kinase gamma catalytic chain, skeletal muscle/heart isoform (Homo sapiens) (Q16816 whole entry, looked up, canonical isoform): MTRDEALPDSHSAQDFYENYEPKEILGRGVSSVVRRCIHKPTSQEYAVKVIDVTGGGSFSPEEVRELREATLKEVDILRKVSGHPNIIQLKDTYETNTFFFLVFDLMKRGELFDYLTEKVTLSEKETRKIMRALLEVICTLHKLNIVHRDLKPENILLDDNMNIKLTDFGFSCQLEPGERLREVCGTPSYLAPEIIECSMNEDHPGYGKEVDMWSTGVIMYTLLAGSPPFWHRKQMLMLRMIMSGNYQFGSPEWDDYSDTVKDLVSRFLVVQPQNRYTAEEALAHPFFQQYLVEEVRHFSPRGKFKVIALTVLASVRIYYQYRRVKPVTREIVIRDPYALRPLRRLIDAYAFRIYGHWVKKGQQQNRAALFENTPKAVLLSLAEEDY

[23] = biological target: Ephrin type-B receptor 3 (Homo sapiens) (UniProt P54753); assay: Inhibition of EPH-B3 assessed as residual activity at 10 uM by radioactivity assay in presence of 20 uM ATP
[24] = biological target: Cyclin-dependent kinase 7 (Homo sapiens) (UniProt P50613); assay: Inhibition of CDK7-catalyzed RNA polymerase 2 phosphorylation at Ser5 in human HMEC1 cells at 5 to 40 uM after 2 hrs by immunoblotting; assay type: cell-based
[25] = system: HCT-116; assay: Cytotoxicity against human HCT116 cells; assay type: functional
[26] = biological target: MAP kinase-interacting serine/threonine-protein kinase 1 (Homo sapiens) (UniProt Q9BUB5); assay: Inhibition of MNK1 assessed as residual activity at 10 uM by radioactivity assay in presence of 50 uM ATP
Chain of MAP kinase-interacting serine/threonine-protein kinase 1 (Homo sapiens) (Q9BUB5 whole entry, looked up, canonical isoform): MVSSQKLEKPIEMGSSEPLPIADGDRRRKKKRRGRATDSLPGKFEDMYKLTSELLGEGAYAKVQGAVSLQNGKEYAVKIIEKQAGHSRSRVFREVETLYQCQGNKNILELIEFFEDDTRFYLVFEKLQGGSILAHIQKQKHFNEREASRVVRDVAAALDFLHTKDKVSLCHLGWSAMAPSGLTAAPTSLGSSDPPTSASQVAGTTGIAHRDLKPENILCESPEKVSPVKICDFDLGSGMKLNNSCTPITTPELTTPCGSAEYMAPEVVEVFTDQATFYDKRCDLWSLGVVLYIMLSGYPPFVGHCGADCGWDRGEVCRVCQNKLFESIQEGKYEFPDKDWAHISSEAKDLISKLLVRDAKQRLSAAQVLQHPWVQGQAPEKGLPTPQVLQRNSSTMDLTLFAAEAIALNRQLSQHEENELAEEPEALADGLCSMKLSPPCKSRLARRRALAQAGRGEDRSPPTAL

[27] = biological target: Casein kinase I isoform delta (Homo sapiens) (UniProt P48730); assay: Inhibition of CK1delta assessed as residual activity at 10 uM by radioactivity assay in presence of 20 uM ATP
Chain of Casein kinase I isoform delta (Homo sapiens) (P48730 whole entry, looked up, canonical isoform): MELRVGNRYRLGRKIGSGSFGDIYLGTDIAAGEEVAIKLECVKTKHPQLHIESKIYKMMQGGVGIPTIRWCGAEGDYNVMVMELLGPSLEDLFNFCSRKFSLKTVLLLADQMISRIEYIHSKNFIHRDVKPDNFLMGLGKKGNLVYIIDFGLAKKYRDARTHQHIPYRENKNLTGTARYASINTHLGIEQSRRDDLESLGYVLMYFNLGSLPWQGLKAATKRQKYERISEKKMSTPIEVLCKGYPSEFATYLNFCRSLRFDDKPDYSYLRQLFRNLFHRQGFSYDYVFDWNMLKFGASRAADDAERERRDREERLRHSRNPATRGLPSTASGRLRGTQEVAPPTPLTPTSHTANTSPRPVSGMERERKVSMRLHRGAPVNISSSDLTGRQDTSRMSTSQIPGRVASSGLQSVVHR

[28] = system: HOP-62; assay: Cytotoxicity against human HOP62 cells; assay type: functional
[29] = biological target: Calcium/calmodulin-dependent protein kinase kinase 2 (Homo sapiens) (UniProt Q96RR4); assay: Inhibition of CAMKKbeta assessed as residual activity at 10 uM by radioactivity assay in presence of 20 uM ATP
[30] = biological target: Cyclin-dependent kinase 2/cyclin A (Homo sapiens) (UniProt P24941+P20248+P78396); assay: Inhibition of CDK2/cyclin A assessed as residual activity at 10 uM by radioactivity assay in presence of 20 uM ATP; assay type: protein-complex assay
[31] = biological target: Serine/threonine-protein kinase Nek6 (Homo sapiens) (UniProt Q9HC98); assay: Inhibition of NEK6 assessed as residual activity at 10 uM by radioactivity assay in presence of 50 uM ATP
Chain of Serine/threonine-protein kinase Nek6 (Homo sapiens) (Q9HC98 whole entry): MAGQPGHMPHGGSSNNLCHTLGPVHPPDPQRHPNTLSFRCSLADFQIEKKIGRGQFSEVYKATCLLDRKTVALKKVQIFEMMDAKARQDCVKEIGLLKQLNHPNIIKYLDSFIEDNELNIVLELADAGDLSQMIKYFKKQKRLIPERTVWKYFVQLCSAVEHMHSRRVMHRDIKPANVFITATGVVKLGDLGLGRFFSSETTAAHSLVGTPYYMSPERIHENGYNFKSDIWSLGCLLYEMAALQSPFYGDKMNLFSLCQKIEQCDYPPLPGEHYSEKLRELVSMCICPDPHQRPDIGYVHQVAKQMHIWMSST

[32] = system: HMEC-1; assay: Antiangiogenic activity in VEGF-stimulated HMEC1 assessed as reduction in tube nodes after 16 hrs by photographic analysis; assay type: functional; settings: Homo sapiens
[33] = biological target: Serine/threonine-protein kinase TBK1 (Homo sapiens) (UniProt Q9UHD2); assay: Inhibition of TBK1 assessed as residual activity at 10 uM by radioactivity assay in presence of 50 uM ATP
[34] = system: MDA-MB-231; assay: Decrease in VEGF expression in human MDA-MB-231 cells at >10 uM after 24 hrs by sandwich ELISA; assay type: functional, cell-based
[35] = biological target: Mitogen-activated protein kinase 13 (Homo sapiens) (UniProt O15264); assay: Inhibition of p38delta MAPK assessed as residual activity at 10 uM by radioactivity assay in presence of 5 uM ATP
[36] = biological target: Serine/threonine-protein kinase Nek2 (Homo sapiens) (UniProt P51955); assay: Inhibition of NEK2a assessed as residual activity at 10 uM by radioactivity assay in presence of 50 uM ATP

Structure (SMILES): Nc1n[nH]c(N)c1/N=N/c1ccc(O)cc1
- GI50 [1]: 13.7 µM
- GI50 [2]: 13.5 µM
- Activity [3]: 96%
- GI50 [4]: 14 µM
- Activity [5]: 106%
- Activity [6]: 45%
- Activity [7]: 106%
- Activity [8]: 93%
- Activity [9]: 29%
- Activity [10]: 98%
- Activity [11]: 99%
- Activity [12]: 102%
- Activity [13]: 58%
- GI50 [14]: 20.6 µM
- Activity [15]: 53%
- Activity [16]: 101%
- GI50 [17]: 24.4 µM
- inhibition [18]: Dose-dependent effect
- Activity [19]: 108%
- IC50 [20]: 15 µM
- Activity [21]: 43%
- Activity [22]: 29%
- Activity [23]: 45%
- inhibition [24]: Active
- GI50 [25]: 18.9 µM
- Activity [26]: 37%
- Activity [27]: 27%
- GI50 [28]: 31.8 µM
- Activity [29]: 52%
- Activity [30]: 27%
- Activity [31]: 114%
- Activity [32]: inactive
- Activity [33]: 55%
- Activity [34]: Active
- Activity [35]: 77%
- Activity [36]: 106%
